Experimental findings from ChEMBL document CHEMBL4152185, “Therapeutic potential of songorine, a diterpenoid alkaloid of the genus Aconitum” (Eur J Med Chem, 2018) are described below.

Data set [1] concerns Rattus norvegicus. Put plainly: Antiarrhythmic activity in iv dosed aconitine-induced rat arrhythmia model administered 3 to 5 mins prior to aconitine challenge by electrocardiographic method. Format: functional.
Data set [2] in a line: Antiarrhythmic index, ratio of LD50 for iv dosed rat to ED50 for antiarrhythmic activity in iv dosed aconitine-induced rat arrhythmia model. Format: toxicity, organism-based. To be noted: in vivo, read-out: Ratio LD50/ED50.
A short description of data set [3]: Acute toxicity in iv dosed rat. Format: organism-based. The settings on record: in vivo.

SMILES strings stand for the structures.

A word on the ED50: it is the dose that gives a 50% effect, or the effect in half of the subjects. Higher therefore signals weaker potency. A word on the LD50: it is the dose at which mortality reaches 50%. Higher therefore signals lower toxicity.

The compound `C=C1[C@H]2C[C@@]3([C@@H]1O)[C@@H](CC2=O)[C@@]12[C@@H](OC(=O)c4ccccc4)CC[C@@]4(C)CN(CC)[C@@H]1[C@@H]3C[C@H]42` had a 50% effective dose (ED50) in data set [1] of 0.38 mg/kg. Moreover, the selectivity ratio in data set [2] was 108. Besides, the LD50 in data set [3] was determined as 41 mg/kg.
Taken in the same sequence, the figures for `C=C1[C@H]2C[C@@]3([C@@H]1O)[C@@H](CC2=O)[C@@]12[C@@H](OC(C)=O)CC[C@@]4(C)CN(CC)[C@@H]1[C@@H]3C[C@H]42` were 15 mg/kg, 10 and 150 mg/kg.
Taken in the same sequence, the figures for `C=C1[C@H]2C[C@@]3([C@@H]1OC(C)=O)[C@@H](CC2=O)[C@@]12[C@@H](OC(C)=O)CC[C@@]4(C)CN(CC)[C@@H]1[C@@H]3C[C@H]42` were 18 mg/kg, 7.3 and 131 mg/kg.
Taken in the same sequence, the figures for `C=C1[C@H]2C[C@@]3([C@@H]1O)[C@@H](CC2=O)[C@]12[C@@H]4C[C@H]3[C@H]1N(CC)C[C@]4(C)CC[C@@H]2O` [SONGORINE] were 7.3 mg/kg, 19 and 142 mg/kg.
